The text below walks through data of ChEMBL document CHEMBL1201862, “PubChem BioAssay data set” (2004).

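Results reflect a 48-hour exposure of cells in 96-well plates to compound at five concentrations. GI50 marks 50% less growth.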 Activity calls are given as the source filed them. Cut-off read from the data, not from the text of the source: active = GI50 up to about 1.1 µM and inactive = higher.

Test systems include A498; ACHN; CAKI-1; COLO 205; HCT-116; HOP-62; Hs-578T; IGROV-1; MCF7; MDA-MB-231; NCI/ADR-RES; OVCAR-3; OVCAR-5; RPMI-8226; RXF 393; SF-295; SN12C; UACC-257; UO-31.
Test in all cases: NCI-60 cell line screen, 48 h

In the case of `N=C(CSSCC(=N)NCC12CC3CC(CC(C3)C1)C2)NCC12CC3CC(CC(C3)C1)C2`, the GI50 in the assay on A498 was 25.5 µM (inactive); in the assay on ACHN, 13.3 µM (inactive); with CAKI-1, 18.7 µM (inactive); with COLO 205, 19.2 µM (inactive); in the assay with HCT-116, 22.4 µM (inactive); with HOP-62, 32.1 µM (inactive). The GI50 in the assay with Hs-578T is 23.4 µM (inactive); in the assay on IGROV-1, 15.9 µM (inactive); in the assay with MCF7, 29.7 µM (inactive); with MDA-MB-231 it was 2.12 µM (inactive); with NCI/ADR-RES it was 17.1 µM (inactive); in the assay with OVCAR-3, 16.1 µM (inactive). Moreover, the GI50 with OVCAR-5 was 17.7 µM (inactive); in the assay on RPMI-8226, 2.33 µM (inactive); with RXF 393 it was > 100 µM (inactive); with SF-295, 14.2 µM (inactive); in the assay on SN12C, 15.7 µM (inactive); in the assay on UACC-257 it was 14.6 µM (inactive). In addition, the GI50 in the assay with UO-31 is 18.2 µM (inactive).

As for `COC(=O)[C@H]1CO[C@@H](C(C)(C)C)N1C(=O)N1C=CC(=O)C[C@@H]1C`, the GI50 in the assay with A498, in the assay on ACHN, in the assay on CAKI-1, in the assay with COLO 205, in the assay with HCT-116 and with HOP-62 was > 100 µM (inactive) in each case. For the same compound, the GI50 with Hs-578T, with IGROV-1, in the assay with MCF7, in the assay with MDA-MB-231, with NCI/ADR-RES and with OVCAR-3 was > 100 µM (inactive) in each case. The GI50 in the assay with OVCAR-5, in the assay on RPMI-8226, in the assay on RXF 393, in the assay with SF-295, in the assay on SN12C and in the assay with UACC-257 was > 100 µM (inactive) throughout. Also, the GI50 in the assay on UO-31 was > 100 µM (inactive).

On to `COc1ccc(CSCc2cc(OC)c(OC)c(OC)c2)cc1`, for which the GI50 in the assay on A498 is > 100 µM (inactive); in the assay with ACHN, > 100 µM (inactive); in the assay with CAKI-1, > 100 µM (inactive); in the assay with COLO 205, > 100 µM (inactive); in the assay with HCT-116 it was > 31.6 µM (inactive); with HOP-62, > 100 µM (inactive). Moreover, the GI50 is > 66.4 µM (inactive) in the assay on Hs-578T; > 100 µM (inactive) with IGROV-1; > 56 µM (inactive) in the assay on MCF7; > 100 µM (inactive) with MDA-MB-231; > 31.6 µM (inactive) in the assay with NCI/ADR-RES; > 100 µM (inactive) in the assay with OVCAR-3. Moreover, the GI50 in the assay on OVCAR-5 was > 100 µM (inactive); in the assay with RPMI-8226, > 55 µM (inactive); with RXF 393 it was > 82 µM (inactive); with SF-295, > 52.4 µM (inactive); with SN12C it was > 86.1 µM (inactive); in the assay on UACC-257, > 31.6 µM (inactive). Further, the GI50 with UO-31 was > 100 µM (inactive).

Take `CN(C)CCOC1(CC2CCCCC2)CCC(C(C)(C)C)CC1` (stereo not given): the GI50 in the assay on A498 is 6.47 µM (inactive); in the assay on ACHN, 7.57 µM (inactive); in the assay with CAKI-1, 6.62 µM (inactive); in the assay on COLO 205, 2.87 µM (inactive); in the assay with HCT-116, 4.36 µM (inactive); in the assay on HOP-62, 4.04 µM (inactive). For the same compound, the GI50 with Hs-578T is 6.78 µM (inactive); with IGROV-1 it was 8.71 µM (inactive); with MCF7, 2.98 µM (inactive); with MDA-MB-231, 4.18 µM (inactive); in the assay on NCI/ADR-RES it was 9.62 µM (inactive); in the assay with OVCAR-3, 7.53 µM (inactive). In addition, the GI50 was 5.53 µM (inactive) in the assay on OVCAR-5; 2.02 µM (inactive) in the assay on RPMI-8226; 3.72 µM (inactive) with RXF 393; 4.32 µM (inactive) with SF-295; 6.46 µM (inactive) in the assay on SN12C; 4.61 µM (inactive) in the assay with UACC-257. Besides, in the assay with UO-31, the GI50 was 2.69 µM (inactive).

Consider `C=C1CC2(C)CCC(OC(=O)C3(C)OC3C)C(C)(OC(C)=O)C2CC1=C(C)C` (stereo not given), for which the GI50 is > 100 µM (inactive) with A498; > 100 µM (inactive) in the assay with ACHN; > 10 µM (inactive) in the assay with CAKI-1; > 100 µM (inactive) in the assay with COLO 205; > 100 µM (inactive) with HCT-116; > 100 µM (inactive) with HOP-62. Moreover, the GI50 with Hs-578T, in the assay on IGROV-1, in the assay with MCF7, with MDA-MB-231, in the assay on NCI/ADR-RES and in the assay on OVCAR-3 was > 100 µM (inactive) in each case. Further, the GI50 in the assay on OVCAR-5, with RPMI-8226, with RXF 393, in the assay on SF-295, in the assay on SN12C and in the assay on UACC-257 was > 100 µM (inactive) in each case. The GI50 with UO-31 was > 100 µM (inactive).

Consider `CC(=O)O[C@H]1C#C/C=C\C#CC[C@@H]2C(=O)N[C@@H]12`, for which the GI50 in the assay on A498 is 21.6 µM (inactive); with ACHN it was 3.5 µM (inactive); in the assay on CAKI-1 it was 4.5 µM (inactive); with COLO 205, 50.4 µM (inactive); in the assay on HCT-116, 27 µM (inactive); with HOP-62, 7.94 µM (inactive). The GI50 in the assay with Hs-578T was 47.3 µM (inactive); with IGROV-1, 22.8 µM (inactive); with MCF7, 4 µM (inactive); with MDA-MB-231, > 100 µM (inactive); in the assay with NCI/ADR-RES, 20.7 µM (inactive); in the assay on OVCAR-3 it was > 78.3 µM (inactive). Moreover, the GI50 is > 100 µM (inactive) in the assay on OVCAR-5; 21.3 µM (inactive) in the assay on RPMI-8226; 23.2 µM (inactive) in the assay on RXF 393; 24.5 µM (inactive) with SF-295; 26 µM (inactive) in the assay with SN12C; > 42.4 µM (inactive) in the assay on UACC-257. Moreover, the GI50 with UO-31 is 3.13 µM (inactive).

With `C/C=C(\C)C(=O)OC1CC(OC(C)=O)C2(C(=O)OC)COC3C2C1(C)C1C2(C(=O)OC)OCC1(C3O)C1(O)C3CC(C4(O)C=COC4O3)C1(C)O2` (stereo not given), the GI50 with A498, in the assay with ACHN, in the assay with CAKI-1, with COLO 205, in the assay with HCT-116 and in the assay with HOP-62 was > 100 µM (inactive) in each case. The GI50 with Hs-578T, with IGROV-1, with MCF7, with MDA-MB-231, in the assay on NCI/ADR-RES and in the assay with OVCAR-3 was > 100 µM (inactive) in each case. The GI50 with OVCAR-5, in the assay on RPMI-8226, with RXF 393, with SF-295, in the assay with SN12C and in the assay on UACC-257 was > 100 µM (inactive) each time. The GI50 in the assay with UO-31 is > 100 µM (inactive).

Regarding `CCCCSC1=N/C(=C\c2ccc(N(C)C)cc2)C(Cl)=N1`, the GI50 is 78.2 µM (inactive) in the assay on A498; > 100 µM (inactive) in the assay with ACHN; > 100 µM (inactive) in the assay on CAKI-1; > 100 µM (inactive) with COLO 205; > 100 µM (inactive) in the assay with HCT-116; > 100 µM (inactive) in the assay with HOP-62. Moreover, the GI50 with Hs-578T, in the assay on IGROV-1, in the assay with MCF7, with MDA-MB-231, in the assay on NCI/ADR-RES and in the assay on OVCAR-3 was > 100 µM (inactive) in each case. The GI50 in the assay with OVCAR-5, in the assay on RPMI-8226, in the assay on RXF 393, in the assay on SF-295, in the assay with SN12C and in the assay on UACC-257 was > 100 µM (inactive) in each case. Moreover, the GI50 in the assay on UO-31 was > 100 µM (inactive).

In the case of `O=[N+]([O-])c1ccc(-c2csc3nc(-c4ccccc4)nn23)cc1`, the GI50 with A498 was > 100 µM (inactive); with ACHN, > 100 µM (inactive); in the assay with CAKI-1, 72.8 µM (inactive); in the assay on COLO 205, > 100 µM (inactive); in the assay on HCT-116, > 100 µM (inactive); in the assay on HOP-62, 43.9 µM (inactive). The GI50 is > 100 µM (inactive) in the assay with Hs-578T; > 100 µM (inactive) in the assay with IGROV-1; > 100 µM (inactive) in the assay on MCF7; 44 µM (inactive) in the assay with MDA-MB-231; > 100 µM (inactive) in the assay on NCI/ADR-RES; > 100 µM (inactive) in the assay with OVCAR-3. Also, the GI50 was > 100 µM (inactive) in the assay on OVCAR-5; > 100 µM (inactive) in the assay with RPMI-8226; 40.8 µM (inactive) with RXF 393; 28.3 µM (inactive) in the assay with SF-295; > 100 µM (inactive) in the assay on SN12C; > 100 µM (inactive) with UACC-257. The GI50 with UO-31 was > 100 µM (inactive).

`CNc1ccc(C(=O)CC(O)CCC(C)C2OC(=O)CC(O)CC(=O)CC(O)CC(O)CC(O)CC(O)CC3(O)CC(O)C(C(=O)N4CCOCC4)C(CC(OC4OC(C)C(O)C(N)C4O)\C=C/C=C\C=C/C=C/C=C/C=C\C=C/C2C)O3)cc1` (stereo not given): the GI50 in the assay on A498 was 0.147 µM (active); in the assay with ACHN, 0.19 µM (active); with CAKI-1, 0.227 µM (active); in the assay on COLO 205, 0.416 µM (active); in the assay with HCT-116 it was 0.504 µM (active); in the assay on HOP-62 it was 0.351 µM (active). For the same compound, the GI50 in the assay with Hs-578T was 0.294 µM (active); in the assay with IGROV-1, 0.244 µM (active); in the assay on MCF7 it was 0.285 µM (active); in the assay with MDA-MB-231, 0.236 µM (active); in the assay with NCI/ADR-RES it was 0.43 µM (active); in the assay on OVCAR-3, 0.435 µM (active). Besides, the GI50 is 0.607 µM (active) with OVCAR-5; 0.259 µM (active) in the assay on RPMI-8226; 0.318 µM (active) in the assay on RXF 393; 0.446 µM (active) in the assay on SF-295; 0.229 µM (active) in the assay with SN12C; 0.185 µM (active) with UACC-257. The GI50 in the assay on UO-31 is 0.195 µM (active).
